Laboratory results: publication PMC5458547, “Discovery of first-in-class reversible dual small molecule inhibitors against G9a and DNMTs in hematological malignancies” (Nature Communications, 2017)
≈ marks a conversion by molar mass, not a printed value.

How the values were obtained:
[1] = target: T1, SETD2 (Homo sapiens, UniProt Q9BYW2); experiment: Epigenetics selectivity panel (BPS Bioscience); format: biochemical
T1 construct: purchased DiscoverX KINOMEscan (kinases); BPS Bioscience (epigenetic targets)
T1 sequence (Q9BYW2 whole entry): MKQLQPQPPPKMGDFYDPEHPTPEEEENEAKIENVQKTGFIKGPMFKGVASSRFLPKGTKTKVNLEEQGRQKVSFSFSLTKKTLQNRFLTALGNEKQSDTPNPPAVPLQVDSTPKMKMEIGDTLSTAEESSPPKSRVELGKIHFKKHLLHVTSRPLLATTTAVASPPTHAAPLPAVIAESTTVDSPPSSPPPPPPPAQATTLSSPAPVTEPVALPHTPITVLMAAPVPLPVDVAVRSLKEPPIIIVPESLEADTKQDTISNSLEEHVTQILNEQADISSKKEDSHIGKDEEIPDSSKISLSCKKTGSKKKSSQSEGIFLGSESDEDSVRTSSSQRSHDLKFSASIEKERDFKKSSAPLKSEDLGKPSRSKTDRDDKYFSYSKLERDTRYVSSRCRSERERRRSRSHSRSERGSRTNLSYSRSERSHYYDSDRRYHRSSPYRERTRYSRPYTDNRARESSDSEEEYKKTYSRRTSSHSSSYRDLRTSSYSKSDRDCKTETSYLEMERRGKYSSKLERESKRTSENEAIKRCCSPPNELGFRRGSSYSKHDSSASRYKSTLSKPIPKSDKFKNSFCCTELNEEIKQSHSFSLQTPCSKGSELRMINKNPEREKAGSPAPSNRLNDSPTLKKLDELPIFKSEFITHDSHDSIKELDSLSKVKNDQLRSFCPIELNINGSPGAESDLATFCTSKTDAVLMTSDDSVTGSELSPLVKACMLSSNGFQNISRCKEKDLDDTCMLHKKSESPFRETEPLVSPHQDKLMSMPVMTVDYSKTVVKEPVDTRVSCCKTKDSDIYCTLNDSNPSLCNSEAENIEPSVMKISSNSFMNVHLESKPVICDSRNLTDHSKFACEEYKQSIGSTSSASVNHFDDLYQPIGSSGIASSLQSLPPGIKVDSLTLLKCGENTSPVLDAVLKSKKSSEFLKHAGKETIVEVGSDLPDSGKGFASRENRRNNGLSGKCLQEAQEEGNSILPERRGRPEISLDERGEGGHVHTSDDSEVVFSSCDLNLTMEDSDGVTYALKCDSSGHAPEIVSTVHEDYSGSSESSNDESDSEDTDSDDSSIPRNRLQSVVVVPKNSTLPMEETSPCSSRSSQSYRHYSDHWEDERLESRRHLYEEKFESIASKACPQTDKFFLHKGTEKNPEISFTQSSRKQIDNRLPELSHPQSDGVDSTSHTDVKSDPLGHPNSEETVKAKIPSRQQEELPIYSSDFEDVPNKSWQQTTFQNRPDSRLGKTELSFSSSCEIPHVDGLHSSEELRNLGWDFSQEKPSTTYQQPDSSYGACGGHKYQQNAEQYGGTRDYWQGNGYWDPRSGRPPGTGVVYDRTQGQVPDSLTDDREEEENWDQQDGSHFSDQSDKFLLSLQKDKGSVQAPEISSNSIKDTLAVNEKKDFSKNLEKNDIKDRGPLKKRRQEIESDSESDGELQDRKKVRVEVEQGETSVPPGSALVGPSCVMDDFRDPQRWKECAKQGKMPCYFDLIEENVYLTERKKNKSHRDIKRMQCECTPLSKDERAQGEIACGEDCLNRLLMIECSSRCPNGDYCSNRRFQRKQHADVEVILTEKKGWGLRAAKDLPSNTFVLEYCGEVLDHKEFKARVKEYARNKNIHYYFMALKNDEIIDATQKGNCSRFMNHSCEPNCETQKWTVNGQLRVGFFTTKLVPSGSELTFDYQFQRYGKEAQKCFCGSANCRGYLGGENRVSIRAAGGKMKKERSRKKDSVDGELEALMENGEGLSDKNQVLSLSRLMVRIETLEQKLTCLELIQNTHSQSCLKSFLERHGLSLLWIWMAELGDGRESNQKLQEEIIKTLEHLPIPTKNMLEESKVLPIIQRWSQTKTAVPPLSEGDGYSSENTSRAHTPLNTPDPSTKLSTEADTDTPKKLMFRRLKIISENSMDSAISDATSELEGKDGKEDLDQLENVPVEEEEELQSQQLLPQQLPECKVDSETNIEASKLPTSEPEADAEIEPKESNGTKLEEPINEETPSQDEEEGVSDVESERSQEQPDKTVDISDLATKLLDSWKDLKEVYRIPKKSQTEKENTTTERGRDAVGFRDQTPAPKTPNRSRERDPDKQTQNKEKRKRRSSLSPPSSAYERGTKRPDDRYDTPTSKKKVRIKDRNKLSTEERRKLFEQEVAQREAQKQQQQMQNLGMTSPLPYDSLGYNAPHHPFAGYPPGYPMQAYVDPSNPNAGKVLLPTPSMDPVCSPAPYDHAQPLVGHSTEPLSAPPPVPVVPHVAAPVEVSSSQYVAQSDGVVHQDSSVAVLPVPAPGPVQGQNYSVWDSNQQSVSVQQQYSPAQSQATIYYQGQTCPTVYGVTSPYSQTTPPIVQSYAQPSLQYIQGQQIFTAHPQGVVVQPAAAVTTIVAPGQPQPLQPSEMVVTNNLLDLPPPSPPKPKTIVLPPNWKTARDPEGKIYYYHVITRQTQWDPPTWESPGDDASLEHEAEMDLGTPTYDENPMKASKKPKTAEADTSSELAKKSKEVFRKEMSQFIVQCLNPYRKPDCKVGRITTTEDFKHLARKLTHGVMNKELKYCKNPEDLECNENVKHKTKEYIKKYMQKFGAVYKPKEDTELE

[2] = target: T2, TRIM24 (Homo sapiens, UniProt O15164); experiment: Epigenetics selectivity panel (BPS Bioscience); format: binding
T2 construct: purchased DiscoverX KINOMEscan (kinases); BPS Bioscience (epigenetic targets)
T2 sequence (O15164 whole entry): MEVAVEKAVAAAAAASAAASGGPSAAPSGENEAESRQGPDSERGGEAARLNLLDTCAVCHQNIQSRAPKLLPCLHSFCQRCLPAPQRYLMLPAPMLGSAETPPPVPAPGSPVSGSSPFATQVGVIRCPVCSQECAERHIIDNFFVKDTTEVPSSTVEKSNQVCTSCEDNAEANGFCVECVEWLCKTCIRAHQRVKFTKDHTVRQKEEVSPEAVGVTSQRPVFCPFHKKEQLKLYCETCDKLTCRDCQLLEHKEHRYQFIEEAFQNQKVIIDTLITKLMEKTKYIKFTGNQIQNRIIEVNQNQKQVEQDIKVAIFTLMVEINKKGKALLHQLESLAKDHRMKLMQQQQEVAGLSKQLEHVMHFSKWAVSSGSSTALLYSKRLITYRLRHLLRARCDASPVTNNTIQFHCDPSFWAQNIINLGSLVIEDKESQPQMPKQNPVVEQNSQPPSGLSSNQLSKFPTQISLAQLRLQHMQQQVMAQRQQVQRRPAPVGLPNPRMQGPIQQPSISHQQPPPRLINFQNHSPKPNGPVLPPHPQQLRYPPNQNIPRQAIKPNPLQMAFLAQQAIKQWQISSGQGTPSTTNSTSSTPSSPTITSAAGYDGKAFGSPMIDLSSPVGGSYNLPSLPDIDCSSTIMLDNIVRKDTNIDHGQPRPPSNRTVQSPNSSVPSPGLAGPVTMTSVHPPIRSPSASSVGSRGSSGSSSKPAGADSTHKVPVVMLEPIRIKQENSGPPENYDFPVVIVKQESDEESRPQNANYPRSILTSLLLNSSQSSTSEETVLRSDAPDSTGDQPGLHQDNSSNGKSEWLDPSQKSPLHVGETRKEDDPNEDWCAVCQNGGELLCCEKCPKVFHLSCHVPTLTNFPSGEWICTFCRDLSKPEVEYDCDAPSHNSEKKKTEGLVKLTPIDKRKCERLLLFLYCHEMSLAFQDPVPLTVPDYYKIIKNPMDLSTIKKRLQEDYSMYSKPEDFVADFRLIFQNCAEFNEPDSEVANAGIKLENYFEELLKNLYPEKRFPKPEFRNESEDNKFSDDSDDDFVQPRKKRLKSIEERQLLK

[3] = system: A375; experiment: Cell proliferation assay (MTS); format: cell-based; details: Homo sapiens, A-375; Melanoma
[4] = system: KASUMI-1; experiment: Cell proliferation assay (MTS); format: cell-based; details: Homo sapiens, AML, 48 h
[5] = system: MM1.S; experiment: Cell proliferation assay (MTS); format: cell-based; details: Homo sapiens
[6] = Maximum tolerated dose; details: mouse, in vivo, iv
[7] = system: SU8686; experiment: Cell proliferation assay (MTS); format: cell-based; details: Homo sapiens, SU.86.86; Pancreas
[8] = system: LAL-CUN-2; experiment: Cell proliferation assay (MTS); format: cell-based; details: Homo sapiens; ALL, 48 h; read-out: GI50
[9] = target: T3, TAF1 (Homo sapiens, UniProt P21675); experiment: Epigenetics selectivity panel (BPS Bioscience); format: binding
T3 construct: purchased DiscoverX KINOMEscan (kinases); BPS Bioscience (epigenetic targets)

[10] = Kinetic solubility; format: physicochemical; details: aqueous buffer, kinetic from dmso stock, pH 7.4, 50 mM phosphate buffer
Description: This study was conducted at Wuxi (http://www.wuxi.com/) at pH 7.4 (50 mM phosphate buffer). […]
The pH was adjusted to 7.40±0.05 using either 1 M sodium hydroxide or 1 M hydrochloric acid. Test compounds were diluted to 0.2 mM in DMSO and further diluted prior to testing to 10 µM in PBS, pH 7.4 (final 5% DMSO). The assay was performed using a 96-well multiscreen-IP PAMPA plate (Millipore, Cat. # MAIPN4510), whose PVDF membrane was pre-coated with 5 µL of 1% lecithin/dodecane mixture. 150 µL of PBS solution containing the test compounds were added to the donor chamber. Blank PBS (300 µL) was also added to the PTFE acceptor plate, and the donor and acceptor plates were assembled and incubated for 4 h at room temperature with shaking at 150 rpm. […]

[11] = system: H460; experiment: Cell proliferation assay (MTS); format: cell-based; details: Homo sapiens, NCI-H460; NSCLC
[12] = target: T4, cytochrome P450 3A4 (Homo sapiens, UniProt P08684); format: in vitro ADME; details: microsomes, 10 min, 10 µM
T4 construct: tissue BD Gentest; host or cells: human liver microsomes
Description: (§1) Details are provided in Supplementary Information. […]
(§2) 3A4) was evaluated in human liver microsomes at Wuxi (http://www.wuxi.com/). Test compounds (10 µM) and the corresponding substrates for each P450 isoform (20 µL) were incubated with 140 µL liver […]
(§3) reaction was terminated by adding 400 µL cold stop solution (200 ng/mL tolbutamide in ACN) and samples were centrifuged at 4000 rpm for 20 minutes. Supernatants were analyzed by LC-MS/MS (Shimadzu LC 20-AD - API 4000), using peak area ratio of analyte/internal standard. Test compounds and positive controls were tested in duplicates. The percentage of inhibition was calculated as the ratio of substrate metabolite detected in treated and non-treated wells. […]

[13] = target: T5, cytochrome P450 2C19 (Homo sapiens, UniProt P33261); format: in vitro ADME; details: microsomes, 10 min, 10 µM
T5 construct: tissue BD Gentest; host or cells: human liver microsomes
Description: as §1, §2, §3

[14] = target: T6, cytochrome P450 2C9 (Homo sapiens, UniProt P11712); format: in vitro ADME; details: microsomes, 10 min, 10 µM
T6 construct: tissue BD Gentest; host or cells: human liver microsomes
Description: as §1, §2, §3

[15] = target: T7, cytochrome P450 2D6 (Homo sapiens, UniProt P10635); format: in vitro ADME; details: microsomes, 10 min, 10 µM
T7 construct: tissue BD Gentest; host or cells: human liver microsomes
T7 sequence (P10635 whole entry): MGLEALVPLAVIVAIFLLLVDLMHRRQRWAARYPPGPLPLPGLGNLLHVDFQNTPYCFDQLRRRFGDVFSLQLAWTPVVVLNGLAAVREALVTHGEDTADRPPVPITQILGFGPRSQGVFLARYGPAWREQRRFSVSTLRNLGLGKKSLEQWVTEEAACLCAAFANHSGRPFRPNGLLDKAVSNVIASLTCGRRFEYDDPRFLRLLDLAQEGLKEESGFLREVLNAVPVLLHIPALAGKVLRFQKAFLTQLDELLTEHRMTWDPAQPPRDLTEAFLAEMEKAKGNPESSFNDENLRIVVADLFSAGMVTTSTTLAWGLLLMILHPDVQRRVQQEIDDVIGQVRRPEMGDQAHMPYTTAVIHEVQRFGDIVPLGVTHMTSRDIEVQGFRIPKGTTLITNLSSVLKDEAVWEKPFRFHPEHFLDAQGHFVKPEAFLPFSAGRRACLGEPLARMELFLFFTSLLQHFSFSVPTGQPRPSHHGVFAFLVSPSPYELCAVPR
Description: as §1, §2, §3

[16] = Liver microsomal stability; format: in vitro ADME; details: human, human liver microsomes; read-out: Liver Microsomal Stability. Estimation T1/2
[17] = system: RPMI 8226; experiment: Cell proliferation assay (MTS); format: cell-based; details: Homo sapiens, MM
[18] = target: T8, EZH2 (Homo sapiens, UniProt Q15910); experiment: Epigenetics selectivity panel (BPS Bioscience); format: biochemical
T8 construct: purchased DiscoverX KINOMEscan (kinases); BPS Bioscience (epigenetic targets)

[19] = system: A498; experiment: Cell proliferation assay (MTS); format: cell-based; details: Homo sapiens, Renal
[20] = system: MY; experiment: Cell proliferation assay (MTS); format: cell-based; details: Homo sapiens; ALL, 48 h
[21] = target: T9, JMJD2C (Homo sapiens, UniProt Q9H3R0); experiment: Epigenetics selectivity panel (BPS Bioscience); format: biochemical
T9 construct: purchased DiscoverX KINOMEscan (kinases); BPS Bioscience (epigenetic targets)

[22] = target: T10, JMJD3 (Homo sapiens, UniProt O15054); experiment: Epigenetics selectivity panel (BPS Bioscience); format: biochemical
T10 construct: purchased DiscoverX KINOMEscan (kinases); BPS Bioscience (epigenetic targets)

[23] = target: T11, JMJD2A (Homo sapiens, UniProt O75164); experiment: Epigenetics selectivity panel (BPS Bioscience); format: biochemical
T11 construct: purchased DiscoverX KINOMEscan (kinases); BPS Bioscience (epigenetic targets)

[24] = target: T12, DNMT3B (Homo sapiens, UniProt Q9UBC3); experiment: Epigenetics selectivity panel (BPS Bioscience); format: biochemical
T12 construct: purchased BPS Bioscience (contract panel)

[25] = target: T13, SUV39H1 (Homo sapiens, UniProt O43463); experiment: Epigenetics selectivity panel (BPS Bioscience); format: biochemical
T13 construct: purchased DiscoverX KINOMEscan (kinases); BPS Bioscience (epigenetic targets)

[26] = target: T14, PRMT8 (Homo sapiens, UniProt Q9NR22); experiment: Epigenetics selectivity panel (BPS Bioscience); format: biochemical
T14 construct: purchased DiscoverX KINOMEscan (kinases); BPS Bioscience (epigenetic targets)
T14 sequence (Q9NR22 whole entry): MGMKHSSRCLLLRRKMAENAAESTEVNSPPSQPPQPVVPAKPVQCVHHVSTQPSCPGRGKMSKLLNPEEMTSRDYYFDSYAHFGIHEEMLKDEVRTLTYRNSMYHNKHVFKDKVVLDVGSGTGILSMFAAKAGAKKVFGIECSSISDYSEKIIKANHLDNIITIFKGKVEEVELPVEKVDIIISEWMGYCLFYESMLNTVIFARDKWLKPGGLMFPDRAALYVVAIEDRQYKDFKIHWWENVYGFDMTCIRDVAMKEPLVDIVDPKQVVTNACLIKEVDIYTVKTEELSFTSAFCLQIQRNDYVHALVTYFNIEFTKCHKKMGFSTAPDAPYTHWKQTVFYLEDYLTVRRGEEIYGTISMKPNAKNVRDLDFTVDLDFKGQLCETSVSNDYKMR

[27] = target: T15, JMJD2E (Homo sapiens, UniProt B2RXH2); experiment: Epigenetics selectivity panel (BPS Bioscience); format: biochemical
T15 construct: purchased DiscoverX KINOMEscan (kinases); BPS Bioscience (epigenetic targets)

[28] = system: MOLM-13; experiment: Cell proliferation assay (MTS); format: cell-based; details: Homo sapiens, AML, 48 h
[29] = system: JJN3; experiment: Cell proliferation assay (MTS); format: cell-based; details: Homo sapiens, JJN-3; MM
[30] = system: UACC-62; experiment: Cell proliferation assay (MTS); format: cell-based; details: Homo sapiens, Melanoma
[31] = system: 697; experiment: Cell proliferation assay (MTS); format: cell-based; details: Homo sapiens; ALL, 48 h
[32] = system: N417; experiment: Cell proliferation assay (MTS); format: cell-based; details: Homo sapiens, SCLC
[33] = target: T16, Jarid1B (Homo sapiens, UniProt Q9UGL1); experiment: Epigenetics selectivity panel (BPS Bioscience); format: biochemical
T16 construct: purchased DiscoverX KINOMEscan (kinases); BPS Bioscience (epigenetic targets)

[34] = target: T17, JMJD2D (Homo sapiens, UniProt Q6B0I6); experiment: Epigenetics selectivity panel (BPS Bioscience); format: biochemical
T17 construct: purchased DiscoverX KINOMEscan (kinases); BPS Bioscience (epigenetic targets)
T17 sequence (Q6B0I6 whole entry): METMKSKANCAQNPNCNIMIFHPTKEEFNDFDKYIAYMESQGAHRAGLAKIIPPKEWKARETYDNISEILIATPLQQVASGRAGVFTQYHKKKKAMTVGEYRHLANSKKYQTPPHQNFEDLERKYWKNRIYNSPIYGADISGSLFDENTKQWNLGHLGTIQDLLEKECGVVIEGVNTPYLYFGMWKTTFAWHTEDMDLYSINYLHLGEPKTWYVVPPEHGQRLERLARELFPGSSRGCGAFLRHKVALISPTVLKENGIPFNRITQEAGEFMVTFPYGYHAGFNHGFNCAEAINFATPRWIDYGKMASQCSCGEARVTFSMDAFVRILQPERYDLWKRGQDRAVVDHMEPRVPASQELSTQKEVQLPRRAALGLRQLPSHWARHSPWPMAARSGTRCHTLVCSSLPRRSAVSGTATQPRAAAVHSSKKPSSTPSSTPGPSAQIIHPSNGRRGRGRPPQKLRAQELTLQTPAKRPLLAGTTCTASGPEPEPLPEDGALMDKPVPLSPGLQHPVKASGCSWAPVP

[35] = target: T18, Jarid1A (Homo sapiens, UniProt P29375); experiment: Epigenetics selectivity panel (BPS Bioscience); format: biochemical
T18 construct: purchased DiscoverX KINOMEscan (kinases); BPS Bioscience (epigenetic targets)

[36] = target: T19, BRDT(BD1) (Homo sapiens, UniProt Q58F21); experiment: Epigenetics selectivity panel (BPS Bioscience); format: binding
T19 construct: purchased DiscoverX KINOMEscan (kinases); BPS Bioscience (epigenetic targets)

## COc1cc2c(NC3CCN(C)CC3)cc(-c3ccc(C)o3)nc2cc1OCCCN1CCCC1 [CM-272, 6-methoxy-2-(5-methyl-2-furyl)-N-(1-methyl-4-piperidyl)-7-(3-pyrrolidin-1-ylpropoxy)quinolin-4-amine]
[1]
  inhibition at 10 µM: 8%
[2]
  inhibition at 10 µM: 0%
[3]
  GI50: 357 nM
[4]
  GI50: 7140 nM
[5]
  GI50: 1080 nM
[6]
  MTD: 2.5 mg/kg
[7]
  GI50: 1400 nM
[8]
  GI50: 664 nM
[9]
  inhibition at 10 µM: 0%
[10]
  solubility: 118 µg/mL (≈ 246 µM)
[11]
  GI50: 1480 nM
[12]
  P450s Inhibition: 3A4: < 10%
[13]
  P450s Inhibition: 2C19: < 10%
[14]
  P450s Inhibition: 2C9: < 10%
[15]
  P450s Inhibition: 2D6: < 10%
[16]
  half-life at 1 µM: > 2.42 h
[17]
  GI50: 2000 nM
[18]
  inhibition at 10 µM: 1%
[19]
  GI50: 4760 nM
[20]
  GI50: 816 nM
[21]
  inhibition at 10 µM: 12%
[22]
  inhibition at 10 µM: 9%
[23]
  inhibition at 10 µM: 1%
[24]
  IC50: 1200 nM
[25]
  inhibition at 10 µM: 1%
[26]
  inhibition at 10 µM: 11%
[27]
  inhibition at 10 µM: 1%
[28]
  GI50: 604 nM
[29]
  GI50: 1320 nM
[30]
  GI50: 780 nM
[31]
  GI50: 913 nM
[32]
  GI50: 1320 nM
[33]
  inhibition at 10 µM: 5%
[34]
  inhibition at 10 µM: 5%
[35]
  inhibition at 10 µM: 2%
[36]
  inhibition at 10 µM: 8%

## COc1cc2c(NCC3CCN(C)CC3)cc(-c3ccc(C)o3)nc2cc1OCCCN1CCCC1 [CM-579, 6-methoxy-2-(5-methyl-2-furyl)-N-[(1-methyl-4-piperidyl)methyl]-7-(3-pyrrolidin-1-ylpropoxy)quinolin-4-amine]
[1]
  inhibition at 10 µM: 0%
[2]
  inhibition at 10 µM: 0%
[3]
  GI50: 48 nM
[4]
  GI50: 5210 nM
[5]
  GI50: 3790 nM
[6]
  MTD: ≤ 1 mg/kg
[7]
  GI50: 621 nM
[8]
  GI50: 365 nM
[9]
  inhibition at 10 µM: 4%
[10]
  solubility: > 144 µg/mL
[11]
  GI50: 4110 nM
[12]
  P450s Inhibition: 3A4: < 10%
[13]
  P450s Inhibition: 2C19: < 10%
[14]
  P450s Inhibition: 2C9: < 10%
[15]
  P450s Inhibition: 2D6: < 10%
[16]
  half-life at 1 µM: 1.48 h
[17]
  GI50: 5420 nM
[18]
  inhibition at 10 µM: 0%
[19]
  GI50: 441 nM
[20]
  GI50: 3950 nM
[21]
  inhibition at 10 µM: 13%
[22]
  inhibition at 10 µM: 3%
[23]
  inhibition at 10 µM: 30%
[24]
  IC50: 1000 nM
[25]
  inhibition at 10 µM: 2%
[26]
  inhibition at 10 µM: 12%
[27]
  inhibition at 10 µM: 8%
[28]
  GI50: 1020 nM
[29]
  GI50: 4350 nM
[30]
  GI50: 150 nM
[31]
  GI50: 4280 nM
[32]
  GI50: 409 nM
[33]
  inhibition at 10 µM: 27%
[34]
  inhibition at 10 µM: 25%
[35]
  inhibition at 10 µM: 27%
[36]
  inhibition at 10 µM: 0%
